Data as given in US11180462B2, “Microbiocidal oxadiazole derivatives” (SYNGENTA PARTICIPATIONS AG, priority 2015, dated 2021).

Assays:
[1] = test system: Puccinia recondita f. Sp. Tritici; assay: Fungicidal activity against Puccinia recondita f. sp. tritici / wheat / leaf disc preventative (brown rust); format: in vivo; conditions: foliar, 200 ppm in the applied formulation, wheat leaf segments, preventative, compared to untreated control leaf disks, read-out: disease control
Summary of the method: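 Preventative leaf-segment test, wheat cv. Kanzler on water agar. Spray compound at 200 ppm, inoculate with spores 1 day later; 19° C., 75% rh, 12/12 h light. Read-out: % disease control vs untreated, 7 to 9 days after application.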

[2] = test system: Puccinia recondita f. Sp. Tritici; assay: Fungicidal activity against Puccinia recondita f. sp. tritici / wheat / leaf disc curative (brown rust); format: in vivo; conditions: foliar, 24 h, 200 ppm in the applied formulation, wheat leaf segments, curative (applied 1 day after inoculation), compared to untreated control leaf disks, read-out: disease control
Summary of the method: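 Wheat cv. Kanzler leaf segments on agar, inoculated with rust spore suspension, kept dark at 19° C and 75% RH; formulated compound sprayed 1 day post-inoculation. Incubated 19° C, 75% RH, 12 h light/12 h dark; percent disease control vs untreated scored 6 to 8 days after application.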

[3] = test system: Phakopsora Pachyrhizi; assay: Fungicidal activity against Phakopsora pachyrhizi / soybean / leaf disc preventative (Asian soybean rust); format: in vivo; conditions: foliar, 200 ppm in the applied formulation, soybean leaf disks, compared to untreated control leaf disks, read-out: disease control
Summary of the method: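 Preventative soybean leaf-disc test: discs on water agar sprayed with diluted formulated compound, inoculated one day later with spores on the lower surface. Held 24–36 h dark at 20°C, 75% rh, then 12 h light/day; percent disease control versus untreated discs scored 12–14 days after application.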

[4] = test system: Glomerella lagenarium (Colletotrichum lagenarium); assay: Fungicidal activity against Glomerella lagenarium (Colletotrichum lagenarium) liquid culture / cucumber / preventative (anthracnose); format: cell-based; conditions: Colletotrichum orbiculare; 20 ppm in the applied formulation; liquid culture (PDB), growth inhibition measured photometrically after 3 to 4 days; compared to untreated control; read-out: disease control
Summary of the method: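 Photometric read-out of fungal growth after 2–7 days, expressed as percent antifungal activity versus untreated check. Cryo-stored conidia in PDB; compound at 20 ppm; dark, 24 °C, 96% RH.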

CC1CC1C(=O)N(C)Cc1ccc(-c2noc(C(F)(F)F)n2)cc1 (stereo not shown) [Compound 1.520, N,2-dimethyl-N-[[4-[5-(trifluoromethyl)-1,2,4-oxadiazol-3-yl]phenyl]methyl]-cyclopropane-carboxamide]
≥ 80%: pest or weed control at 200 ppm [1] | pest or weed control at 200 ppm [2] | pest or weed control at 200 ppm [3] | inhibition of growth at 20 ppm [4]

CCCN(Cc1ccc(-c2noc(C(F)(F)F)n2)cc1)C(=O)C(C)OC (stereo not shown) [Compound 1.666, 2-methoxy-N-propyl-N-[[4-[5-(trifluoromethyl)-1,2,4-oxadiazol-3-yl]phenyl]methyl]-propanamide]
≥ 80%: pest or weed control at 200 ppm [1] | pest or weed control at 200 ppm [2] | pest or weed control at 200 ppm [3] | inhibition of growth at 20 ppm [4]

CON(Cc1ccc(-c2noc(C(F)(F)F)n2)cn1)C(=O)C1CCCO1 (stereo not shown) [Compound 1.569, N-methoxy-N-[[5-[5-(trifiuoromethyl)-1,2,4-oxadiazol-3-yl]-2-pyridyl]methyl]-tetrahydrofuran-2-carboxamide]
≥ 80%: pest or weed control at 200 ppm [1] | pest or weed control at 200 ppm [2] | pest or weed control at 200 ppm [3] | inhibition of growth at 20 ppm [4]

COCCN(Cc1ccc(-c2noc(C(F)(F)F)n2)cc1)C(=O)C1(C#N)CC1 [Compound 1.356, 1-cyano-N-(2-methoxyethyl)-N-[[4-[5-(trifluoromethyl)-1,2,4-oxadiazol-3-yl]phenyl]methyl]-cyclopropane-carboxamide]
≥ 80%: pest or weed control at 200 ppm [1] | pest or weed control at 200 ppm [2] | pest or weed control at 200 ppm [3] | inhibition of growth at 20 ppm [4]

O=C(OCCN(Cc1ccc(-c2noc(C(F)(F)F)n2)cc1)C(=O)C1CCCO1)C1CCCO1 (stereo not shown) [Compound 1.727, 2-[tetrahydrofuran-2-carbonyl-[[4-[5-(trifluoromethyl)-1,2,4-oxadiazol-3-yl]phenyl]methyl]-amino]ethyl tetrahydrofuran-2-carboxylate]
≥ 80%: pest or weed control at 200 ppm [1] | pest or weed control at 200 ppm [2] | pest or weed control at 200 ppm [3] | inhibition of growth at 20 ppm [4]

CON(Cc1ccc(-c2noc(C(F)(F)F)n2)cc1)C(=O)Cc1ccccc1 [Compound 1.4, N-methoxy-2-phenyl-N-[[4-[5-(trifluoromethyl)-1,2,4-oxadiazol-3-yl]phenyl]methyl]-acetamide]
≥ 80%: pest or weed control at 200 ppm [1] | pest or weed control at 200 ppm [2] | pest or weed control at 200 ppm [3] | inhibition of growth at 20 ppm [4]

CON(Cc1ccc(-c2noc(C(F)(F)F)n2)cc1)C(=O)C1CCCC1 [Compound 1.27, N-methoxy-N-[[4-[5-(trifluoromethyl)-1,2,4-oxadiazol-3-yl]phenyl]methyl]-cyclopentane-carboxamide]
≥ 80%: pest or weed control at 200 ppm [1] | pest or weed control at 200 ppm [2] | pest or weed control at 200 ppm [3] | inhibition of growth at 20 ppm [4]

CNC(=O)N(Cc1ccc(-c2noc(C(F)(F)F)n2)c(F)c1)OC [Compound 3.44, 1-[[3-fluoro-4-[5-(trifluoromethyl)-1,2,4-oxadiazol-3-yl]phenyl]methyl]-1-methoxy-3-methyl-urea]
≥ 80%: pest or weed control at 200 ppm [1] | pest or weed control at 200 ppm [2] | pest or weed control at 200 ppm [3] | inhibition of growth at 20 ppm [4]

COCCC(=O)N(Cc1ccc(-c2noc(C(F)(F)F)n2)cc1)CC1CC1 [Compound 1.217, N-(cyclopropylmethyl)-3-melhoxy-N-[[4-[5-(trifluoromethyl)-1,2,4-oxadiazol-3-yl]phenyl]methyl]-propanamide]
≥ 80%: pest or weed control at 200 ppm [1] | pest or weed control at 200 ppm [2] | pest or weed control at 200 ppm [3] | inhibition of growth at 20 ppm [4]

COCCCC(=O)N(C)Cc1ccc(-c2noc(C(F)(F)F)n2)cc1 [Compound 1.526, 4-methoxy-N-methyl-N-[[4-[5-(trifluoromethyl)-1,2,4-oxadiazol-3-yl]phenyl]methyl]-butanamide]
≥ 80%: pest or weed control at 200 ppm [1] | pest or weed control at 200 ppm [2] | pest or weed control at 200 ppm [3] | inhibition of growth at 20 ppm [4]

COCCN(Cc1ccc(-c2noc(C(F)(F)F)n2)cc1)C(=O)C1CC1C (stereo not shown) [Compound 1.341, N-(2-methoxyethyl)-2-methyl-N-[[4-[5-(trifluoromethyl)-1,2,4-oxadiazol-3-yl]phenyl]methyl]-cyclopropane-carboxamide]
≥ 80%: pest or weed control at 200 ppm [1] | pest or weed control at 200 ppm [2] | pest or weed control at 200 ppm [3] | inhibition of growth at 20 ppm [4]

C#CCN(Cc1ccc(-c2noc(C(F)(F)F)n2)cc1)C(=O)C1CC1(F)F (stereo not shown) [Compound 1.157, 2,2-difluoro-N-prop-2-ynyl-N-[[4-[5-(trifluoromethyl)-1,2,4-oxadiazol-3-yl]phenyl]methyl]-cyclopropane-carboxamide]
≥ 80%: pest or weed control at 200 ppm [1] | pest or weed control at 200 ppm [2] | pest or weed control at 200 ppm [3] | inhibition of growth at 20 ppm [4]

N#CC1(C(=O)N(Cc2ccc(-c3noc(C(F)(F)F)n3)cc2)C2COC2)CC1 [Compound 1.749, 1-cyano-N-(oxetan-3-yl)-N-[[4-[5-(trifluoromethyl)-1,2,4-oxadiazol-3-yl]phenyl]methyl]-cyclopropane-carboxamide]
≥ 80%: pest or weed control at 200 ppm [1] | pest or weed control at 200 ppm [2] | pest or weed control at 200 ppm [3] | inhibition of growth at 20 ppm [4]

CC(C)(CCl)C(=O)N(Cc1ccc(-c2noc(C(F)(F)F)n2)cc1)C1CC1 [Compound 1.110, 3-chloro-N-cyclopropyl-2,2-dimethyl-N-[[4-[5-(trifluoromethyl)-1,2,4-oxadiazol-3-yl]phenyl]methyl]-propanamide]
≥ 80%: pest or weed control at 200 ppm [1] | pest or weed control at 200 ppm [2] | pest or weed control at 200 ppm [3] | inhibition of growth at 20 ppm [4]

CON(Cc1ccc(-c2noc(C(F)(F)F)n2)cc1F)C(=O)C1CC1 [Compound 1.566, N-[[2-fluoro-4-[5-(trifluoromethyl)-1,2,4-oxadiazol-3-yl]phenyl]methyl]-N-methoxy-cyclopropane-carboxamide]
≥ 80%: pest or weed control at 200 ppm [1] | pest or weed control at 200 ppm [2] | pest or weed control at 200 ppm [3] | inhibition of growth at 20 ppm [4]

CCCC(=O)N(Cc1ccc(-c2noc(C(F)(F)F)n2)cc1)OC [Compound 1.24, N-methoxy-N-[[4-[5-(trifluoromethyl)-1,2,4-oxadiazol-3-yl]phenyl]methyl]-butanamide]
≥ 80%: pest or weed control at 200 ppm [1] | pest or weed control at 200 ppm [2] | pest or weed control at 200 ppm [3] | inhibition of growth at 20 ppm [4]

CCC(C)C(=O)N(C)Cc1ccc(-c2noc(C(F)(F)F)n2)cc1 (stereo not shown) [Compound 1.525, N.2-dimethyl-N-[[4-[5-(trifluoromethyl)-1,2,4-oxadiazol-3-yl]phenyl]methyl]-butanamide]
≥ 80%: pest or weed control at 200 ppm [1] | pest or weed control at 200 ppm [2] | pest or weed control at 200 ppm [3] | inhibition of growth at 20 ppm [4]

O=C(C1CCSCC1)N(Cc1ccc(-c2noc(C(F)(F)F)n2)cc1)C1CC1 [Compound 1.123, N-cyclopropyl-N-[[4-[5-(trifluoromethyl)-1,2,4-oxadiazol-3-yl]phenyl]methyl]-tetrahydrothiopyran-4-carboxamide]
≥ 80%: pest or weed control at 200 ppm [1] | pest or weed control at 200 ppm [2] | pest or weed control at 200 ppm [3] | inhibition of growth at 20 ppm [4]

COCCC(=O)N(Cc1ccc(-c2noc(C(F)(F)F)n2)cc1)C1CC1 [Compound 1.106, N-cyclopropyl-3-methoxy-N-[[4-[5-(trifluoromethyl)-1,2,4-oxadiazol-3-yl]phenyl]methyl]-propanamide]
≥ 80%: pest or weed control at 200 ppm [1] | pest or weed control at 200 ppm [2] | pest or weed control at 200 ppm [3] | inhibition of growth at 20 ppm [4]

CC(C)C(=O)N(O)Cc1ccc(-c2noc(C(F)(F)F)n2)cc1 [Compound 1.752, N-hydroxy-2-methyl-N-[[4-[5-(trifluoromethyl)-1,2,4-oxadiazol-3-yl]phenyl]methyl]-propanamide]
≥ 80%: pest or weed control at 200 ppm [1] | pest or weed control at 200 ppm [2] | pest or weed control at 200 ppm [3] | inhibition of growth at 20 ppm [4]

O=C(C1CC1(F)F)N(Cc1ccc(-c2noc(C(F)(F)F)n2)cc1)CC(F)(F)F (stereo not shown) [Compound 1.690, 2,2-difluoro-N-(2,2,2-trifluoroethyl)-N-[[4-[5-(trifluoromethyl)-1,2,4-oxadiazol-3-yl]phenyl]methyl]-cyclopropane-carboxamide]
≥ 80%: pest or weed control at 200 ppm [1] | pest or weed control at 200 ppm [2] | pest or weed control at 200 ppm [3] | inhibition of growth at 20 ppm [4]

CCN(Cc1ccc(-c2noc(C(F)(F)F)n2)cc1)C(=O)C(C)OC (stereo not shown) [Compound 1.512, N-ethyl-2-methoxy-N-[[4-[5-(trifluoromethyl)-1,2,4-oxadiazol-3-yl]phenyl]methyl]-propanamide]
≥ 80%: pest or weed control at 200 ppm [1] | pest or weed control at 200 ppm [2] | pest or weed control at 200 ppm [3] | inhibition of growth at 20 ppm [4]
